A short description of data set [1]: Pharmacokinetics following a single dose in rat (1 mg/kg iv, 3 mg/kg oral), LC-MS/MS, one-compartment model. Type of data set: in vivo. The settings on record: for bioavailability: 3 mg/kg oral in 1% CMC vs 1 mg/kg iv, one-compartment model, read-out: F (%) oral bioavailability; for Vd: read-out: Vss (L/kg) volume of distribution; for half-life: intravenous dosing 1 mg/kg, read-out: t1/2 (mins) dominant plasma half-life. On the procedure: Compounds were administered as a single dose (either 1 mg/kg bodyweight in 5% DMSO via the intravenous route or 3 mg/kg in 1% carboxymethylcellulose via the oral route) to three adult rats (using different rats for each compound and each route of administration).
Blood was then sampled at various time points (including just prior to dose administration) out to 24 hrs post dose, and the level of the various compounds was assessed using a validated LC-MS/MS assay. Briefly, 3-5 μl of the deproteinised sample was applied to a Waters Atlantis (C18 20×2.1 mm, 3 μm bead size) reverse phase chromatography column equilibrated in 0.1% formic acid in 95:5 water:actetonitrile. Over 3.5 minutes bound material was gradient eluted reaching 0.1% formic acid in 5:95 water:acetonitrile, followed by a step gradient back to 0.1% formic acid in 95:5 water:acetonitrile. The column eluent was then directed to an Applied Biosystems API 4000/3200 QTrap MS/MS mass spectrometer, with a TurboIonspray™ ion source operating in positive ion mode. The interface temperature was set at 650° C., with a 40 ms dwell time for each MRM transition, monitoring the following ions:
The internal standard in each determination was the related compound (S)-3-(2′,2′-dimethyl-propanoylamino)-caprolactam, which was spiked into the sample prior to deproteinization. The lower limit of quantitation (LLOQ) for this assay was 2.4 ng/ml for each compound except (I′), where it was 38.1 ng/ml.
Following LC-MS/MS analysis of each collected sample, the pharmacokinetic disposition of the compound was modelled using Kinetica software, a well known software package for such applications.
Compounds (VI) and (VII) were subject to pharmacokinetic analysis in rat using exactly the same protocols previous applied for compounds (I) through (V) in example 1.
We therefore subjected (VIII) to pharmacokinetic analysis in rat using exactly the same protocols previous applied for compounds (I′) through (VII) in examples 1 and 7.
The isolated (R)-enantiomer of (I) was therefore synthesised (exactly as described herein for the isolated (S)-enantiomer, but replacing the (S)-ornithine starting material with commercially available (R)-ornithine of high stereochemical purity), and the PK properties of this agent, in rat, was determined using the identical methodology described above (see Examples 1, 7 and 8).

Data set [2] in a line: In vitro stability (hydrolysis of C-Cl bond) in physiological saline, LC/MS. Type of data set: physicochemical. As to conditions: after 24 hours at 37° C. The protocol:
(§1) An obvious concern related to this molecule was the stability of the C—Cl bond. We therefore examined the stability of (VIII) in vitro, both in physiological saline and in a rat liver microsome preparation. Encouragingly, less than 2% of (VIII) had undergone hydrolysis (determined by LC/MS, with dual ion detection of the hydrolysis product (V) and the parent compound (VIII)) even after 24 hours at 37° C. […] As a result, we conclude that compound (VIII) has similar in vitro stability and intrinsic clearance to (I′).

Data set [3] is described as follows: Stability in rat liver microsome preparation. The class given is in vitro ADME. As to conditions: 1 μM, 1 hour at 37° C. The protocol: as §1
A general note: Microsomes from liver hold many membrane-bound enzymes, among them those of drug oxidation.

A short description of data set [4]: Identification of the primary metabolites in pooled rat urine by LC-MS-MS. As to conditions: single oral dose 3 mg/kg in 1% CMC, pooled urine over 24 hrs, qualitative, 3 mg/kg. Type of data set: in vivo. On the procedure:
Urine was collected from rats exposed to a single oral dose (3 mg/kg in 1% CMC) of each compound over a 24 hour period in metabolic cages. The pooled urine sample was then subjected to full scan mass spectral analysis, using the same LC-MS conditions as described in example 1 above. Further MS-MS analysis of the product ions was then performed, and likely fragmentations/re-arrangements assigned from the publicly available Metabolite ID database.
For the major metabolites, the assigned structures were confirmed by synthesis of authentic samples, using methods well known in the art, which were subject to LC-MS-MS analysis under the same conditions as the urine samples.
Note that metabolite ID studies provide only qualitative estimates of the relative amounts of the different metabolites present, and separately validated assays with appropriate internal standards would be required to quantitate each metabolite species.

For data set [5], the system named is S. Typhinurium (TA102, TA98 and TA100). The data set can be described thus: AMES test, revertant colony formation. The class given is cell-based. The settings on record: at 5 mg/ml. The protocol:
The five compounds were subjected to a standard AMES test to assess likely genotoxicity. Three His-auxotroph strains of S. Typhinurium (TA102, TA98 and TA100) were treated with each of the compounds at 5 concentrations (up to 5 mg/ml) in the presence and absence of S9 rat liver microsomal metabolising system. The number of revertant colonies was then determined by plating on trace-His minimal media.

The next data set has as its target T1, NK2 receptor (Homo sapiens, UniProt P21452).
T1 construct: purchased CEREP (screening panel)
T1 sequence (P21452 1-398): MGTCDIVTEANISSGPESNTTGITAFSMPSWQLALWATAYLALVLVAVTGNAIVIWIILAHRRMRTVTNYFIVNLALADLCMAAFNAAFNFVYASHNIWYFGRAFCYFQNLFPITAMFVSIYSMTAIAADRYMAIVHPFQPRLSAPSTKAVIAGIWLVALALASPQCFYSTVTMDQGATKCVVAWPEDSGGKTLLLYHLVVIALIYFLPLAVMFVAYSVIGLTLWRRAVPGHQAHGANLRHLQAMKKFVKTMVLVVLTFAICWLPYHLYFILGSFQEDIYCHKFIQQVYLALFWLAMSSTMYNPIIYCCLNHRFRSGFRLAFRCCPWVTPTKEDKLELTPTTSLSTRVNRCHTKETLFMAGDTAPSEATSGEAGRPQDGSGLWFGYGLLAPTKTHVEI
The data set can be described thus: CEREP panel binding, NK2 receptor. As to conditions: estimated from single concentration 10 μM; read-out: estimated ED50 for interaction with the NK2 receptor. The protocol: FIGS. 5A-5F show the profile of cross-reactivity for each of the five compounds (I′) to (V) (FIG. 5A: (II); FIG. 5B: (III); FIG. 5C: (V); FIG. 5D: (I′) and FIG. 5E: (IV)) against a panel of 75 different receptors that compose the CEREP panel (see text). The compounds were tested at a single concentration (10 μM), and the inhibition of binding (Y-axis of each histogram) for a known ligand to each of the 75 receptors is reported (−100% therefore represents a 2-fold increase in binding of the specific ligand in the presence of the test compound). All reactions were performed in duplicate, and the bars represent the mean (no estimate of the replicate error is shown to simplify the graphs). Only a 50% or greater inhibition (or stimulation) of binding (representing an ED50 below 10 μM for the interaction of the test compound with the particular receptor) was considered statistically and biologically significant in this screening assay. For the five compounds tested here, only one interaction (that of compound (II) with the NK2 receptor, marked by the arrowhead in FIG. 5A) was considered potentially significant, although even this interaction was weak (estimated ED50 5-10 μM).
Binding to non-target receptors was assessed using similar protocols, exploiting specific radioligands for each receptor which are well known in the art. […]

Setting [6] is: plasma, averaged across three rats.
Where [7] appears, read: plasma, iv, 1 mg/kg, averaged across three rats.

“Also recorded” adds a separate entry of the source.

`O=C1NCCCC[C@@H]1NC(=O)C12CC3CC(CC(Cl)(C3)C1)C2` [(VIII)]: in data set [1], the “clearance, fold higher than (I′)” value is recorded as “more than 20 fold” and the “oral bioavailability” value is recorded as “no detectable oral bioavailability whatsoever”. In data set [1] (all time-points, limit of quantitation ˜2 ng/ml), the “level of analyte in plasma following oral dosing” value is given as “below the limit of quantitation”. Also, in data set [1] (blood, single oral dose 3 mg/kg in 1% CMC, Tables 7-9, read-out: Exposure (min · ng/ml), oral exposure AUC 0-t (converted)), the AUC(0-t) was less than 1.67 ng·h/mL. Moreover, in data set [1] (setting [6]), the bioavailability (in general, the share of a dose that reaches the circulation, judged against a reference dose that is usually intravenous) is less than 1%. Moreover, in data set [1] (setting [7]), the clearance was determined as 62.8 mL/min/kg, the Vd was found to be 0.7 L/kg and the half-life was 15 min. The “hydrolysis to (V)” value in data set [2] is “less than 2%”. In addition, the “degradation compared to a no NADPH blank run” value in data set [3] is listed as “less than 10%”.
With `O=C1NCCCC[C@@H]1NC(=O)C12CC3CC(CC(C3)C1)C2` [Compound (II), 3-(adamantane-1-carbonylamino)-caprolactam], in data set [1] (setting [6]), the bioavailability was less than 1%. Besides, in data set [1] (setting [7]), the Vd was 0.8 L/kg and the half-life turned out to be 16 min. In addition, in data set [4], the “major metabolites / route of metabolism detected in urine” value is reported as “cytochrome P450-mediated hydroxylation; also recorded: rapidly converted to (V) in vivo”. In data set [5], the “effect on bacterial lawn growth” value is “inhibition of bacterial lawn growth”. On NK2 receptor, the IC50 was 5 to 10 µM.

The values above are taken from patent publication US20150141460A1, “Anti-inflammatory Compositions” (Cambridge Enterprise Limited, priority 2007, published 2015).
